{
  "source": "patent US8193238B2",
  "about": "“Inhibition of microtubule protrusion in cancer cells” (University of Maryland, Baltimore, priority 2006, dated 2012)",
  "key": {"MCF10A cells [1]": {"system": "MCF10A cells", "test": "Chemical inhibition of Latrunculin-A-enhanced microtubule protrusions in suspended cells", "format": "cell-based, human", "protocol": "MCF10A cells were placed into suspension in the presence of the indicated chemical inhibitors targeted at specific signaling pathways or the corresponding vehicle controls. Cells were then treated with the actin polymerization inhibitor, Latrunculin-A (LA, 5 μM) for one hour to enhance protrusions. […] Thus, protrusions can be reduced by chemical inhibition of specific signaling proteins."}, "cells": {"system": "cells", "format": "cell-based", "conditions": "indicated concentrations, 2 hours"}, "MDA-231": {"system": "MDA-231", "test": "GFP-membrane protrusion counts after local anesthetics (MDA-231)", "format": "cell-based, human", "conditions": "MDA-231, GFP-membrane; Lidocaine 50 mM, Tetracaine 2.5 mM; with or without LA", "protocol": "(§1) Cells were then suspended in DMEM culture media with or without […] Latrunculin-A (LA) to induce protrusions by depolymerizing actin. […] Bars represent mean+S.D. of at least three blindly counted experiments."}, "MCF10A cells [2]": {"system": "MCF10A cells", "conditions": "MCF10A treated two hours"}, "Bt-474": {"system": "Bt-474", "test": "GFP-membrane protrusion counts after local anesthetics (Bt-474)", "format": "cell-based, human", "conditions": "Bt-474, GFP-membrane; Lidocaine 50 mM, Tetracaine 2.5 mM; with or without LA", "protocol": "as §1"}, "metastasis": {"system": "metastasis", "conditions": "known, via unclear mechanism; cited from earlier work"}, "[3]": {"system": "detached mammary epithelial cells", "test": "Protrusions of detached mammary epithelial cells, general statements", "format": "cell-based, human and mouse", "protocol": "Time-lapse video microscopy of detached mammary epithelial cells detected the extension of long, dynamic protrusions of the plasma membrane, and the present inventors have characterized the cytoskeletal mechanism underlying this novel observation. […] This response may be relatively short-lived, in specific embodiments, since mammary epithelial cells die by apoptosis within about 24 hours in suspension. However, cell lines that resist apoptosis through expression of either Bcl-2 or Bcl-xL will persistently form protrusions. Previous studies by the inventors indicate that such apoptotically-resistant cell lines will not form tumors in mice and lie dormant in distant tissues, in specific embodiments of the invention. […] These microtubule processes can extend more than 3 times the cell diameter, and undergo a rapid probing motion more than once per second. Formation of these microtubule protrusions is necessary for efficient cell-cell and cell-substratum attachment. In particular embodiments of the invention, this inherent microtubule response in detached mammary epithelial cells provides at least some of the invasive characteristics of breast cancer, independent of any tumor-specific genetic alteration, for example.\nBreast tumor cells enter the bloodstream long before the development of clinically evident metastasis. However, the early presence of such bloodborne cells predicts poor patient outcome. Nearly 90% of human breast tumors arise as carcinomas from mammary epithelial cells, so it is important to characterize how these cells respond to the detached conditions that they would experience in the bloodstream. In the present invention, mammary epithelial cell lines produce long and dynamic protrusions of the plasma membrane when detached. Although human and mouse mammary epithelial cell lines die by apoptosis within 16 hours of detachment, this protrusive response persists for days in cells overexpressing either Bcl-2 or Bcl-xL, for example. […] Since bloodborne metastasis depends on both cell-cell and cell-matrix attachment, microtubule-based protrusions in detached mammary epithelial cells provide a novel target that could influence the metastatic spread of breast tumors.\nDetachment-induced increases in Glu-tubulin could promote plasma membrane protrusions of microtubules by preventing efficient capture at the actin cortex. […] Therefore, our current model is that detachment increases stabilized microtubules enriched in Glu-tubulin, while decreased actin polymerization simply promotes extension of these microtubule protrusions."}, "EpH4 cells": {"system": "EpH4 cells", "test": "Protrusions in suspended cells treated with cytoskeletal inhibitors (EpH4)", "format": "cell-based, mouse", "conditions": "EpH4, 15 minutes of suspension; Latrunculin-A 5 μM, Colchicine 1 μM", "protocol": "(§2) In FIG. 2A, after 15 minutes of suspension, protrusions in EpH4 and MCF10A cells are quite small (Control, white arrows). […] In FIG. 2B, populations of live, suspended cells were scored blindly for two or more protrusions longer than the cell radius. Each bar represents the mean+S.D. for three experiments in which at least 100 single cells were counted.\nEpH4 cells were suspended in either DMEM (Control) or media containing 5 μM Latrunculin-A (LA), 1 μM Colchicine or the combination of both drugs for 30 minutes. Cells were then spun onto glass coverslips and fluorescently stained for α-tubulin (green) and polymerized actin (red). Protrusions that are difficult to see by phase contrast are easily discernible with immunostaining for α-tubulin (white arrows). Protrusions contain little polymerized actin, except at points of concentration, which are often at the end (arrowhead).\nEpH4 and B19 cells were suspended over 2% agarose coated plates to prevent attachment in either serum-free DMEM or media containing. Latrunculin-A (5 μM) to enhance protrusions. For co-staining of α-tubulin and actin, suspended cells were then centrifuged onto poly-L-lysine coated coverslips (280 g×5 min), fixed in 3.7% formaldehyde in PBS for 10 min, and permeablized with 0.1% Triton X-100 in PBS. Adhered cells were then stained for 1 hr at room temperature using FITC-conjugated anti-α-tubulin (1:200; Sigma), Alexa-594 phalloidin (1:100; Molecular Probes), and Hoescht 33342 (1:5000; Sigma).\n(§3) In order to initially characterize the cytoskeletal mechanism underlying these protrusions, suspended cells were treated with inhibitors of actin and tubulin polymerization (FIG. 2). After 15 minutes of suspension, the protrusions in untreated EpH4 or MCF10A cells remain fairly short (FIG. 2, white arrows). These early protrusions can often be difficult to detect with phase-contrast microscopy, due to interfering light refraction from the plasma membrane. […] Protrusions were more easily visible with immunofluorescence than phase contrast microscopy (FIG. 3, white arrows). Although actin filament staining was generally low along the length of the protrusion, dense points of actin were often found at the end of protrusions (FIG. 3, arrowheads)."}, "MCF10A cells [4]": {"system": "MCF10A cells", "test": "Protrusions in suspended cells treated with cytoskeletal inhibitors (MCF10A)", "format": "cell-based, human", "conditions": "MCF10A, 15 minutes of suspension; Latrunculin-A 5 μM, Colchicine 1 μM", "protocol": "as §2, §3\nThe nontumorigenic human mammary epithelial cell line (MCF10A) or the indicated human breast tumor cell lines were grown in suspension for 30-60 minutes, and protrusions were counted in random fields with phase-contrast microscopy. Values represent the mean±S.D. of three experiments in which at least 100 cells were counted. […] This effect was most apparent in the highly metastatic but exemplary Bt-474 and MDA-MB-231 cells (pictured, black arrows). The exemplary MCF10A cells show far fewer and shorter protrusions at the same time point (pictured, white arrows). Such protrusions are not observed in attached cells."}, "[5]": {"system": "chicken erythrocytes from day 2 embryos", "conditions": "cited from earlier work"}},
  "note": "“Also recorded” adds a separate entry of the source.",
  "data": [
    {"smiles": "Cn1sc(=O)n(Cc2ccccc2)c1=O", "note": "[TDZD-8]", "values": [
      {"measurement": "protrusions", "setting": "MCF10A cells [1]; MCF10A in suspension, then LA 5 μM one hour, sodium orthovanadate 1 mM, S-Trityl-L-Cysteine 100 μM, TDZD-8 20 μM", "result": "strongest inhibition of protrusions"},
      {"measurement": "protrusion frequency", "setting": "MCF10A cells [1]; one hour of treatment", "result": "reduce protrusion frequency significantly"},
      {"measurement": "cell viability", "setting": "cells", "result": "did not reduce cell viability significantly"}
    ]},
    {"smiles": "CCCCNc1ccc(C(=O)OCCN(C)C)cc1", "note": "[Tetracaine]", "values": [
      {"measurement": "protrusions", "setting": "MDA-231", "result": "inhibited significantly"},
      {"measurement": "concentration showing significant cell toxicity", "setting": "MCF10A cells [2]", "result": "≥ 3000", "unit": "µM"},
      {"measurement": "cell toxicity", "setting": "MCF10A cells [2]; Lidocaine up to 50 mM", "result": "cytotoxic"},
      {"measurement": "protrusions", "setting": "Bt-474", "result": "inhibited significantly"},
      {"measurement": "metastasis", "setting": "metastasis", "result": "reduce metastasis"}
    ]},
    {"smiles": "C=C1[C@@H](C)[C@H]2[C@H](Cc3ccccc3)NC(=O)[C@]23[C@H](OC(C)=O)/C=C/[C@@](C)(O)C(=O)[C@@H](C)C/C=C/[C@H]3[C@@H]1O", "note": "[Cytochalasin-D]", "values": [
      {"measurement": "protrusions", "setting": "[3]", "result": "enhanced; also recorded: promotes the extension of microtubule protrusions"},
      {"measurement": "protrusions", "setting": "EpH4 cells", "result": "increased protrusions"},
      {"measurement": "protrusions", "setting": "MCF10A cells [4]", "result": "increased protrusions"},
      {"measurement": "microtubule processes", "setting": "[5]", "result": "promotes microtubule processes"}
    ]}
  ]
}
